Drawing on patent publication US9573913B2, “Cathepsin cysteine protease inhibitors” (Merck Sharp & Dohme Corp., priority 2013, dated 2017), this text covers IC50 for 19 molecules.

One assay addresses human cathepsin K (UniProt P43236). Nature of the assay: Cathepsin K Assay (hrbCat K). Format: biochemical. The following applies: Z-Leu-Arg-AMC substrate, pH 5.5, 15 min preincubation; read-out: hrbCat K (IP (nM)). The method, boiled down:
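Human cathepsin K (0.4 nM) was preincubated 15 min at room temperature with compound in 50 mM MES pH 5.5, 2.5 mM EDTA, 2.5 mM DTT and 10% DMSO. Inhibition was fitted to a dose-response model.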

The next assay has as its target T1, human cathepsin F (Homo sapiens, UniProt Q9UBX1).
T1 sequence (Q9UBX1 271-484): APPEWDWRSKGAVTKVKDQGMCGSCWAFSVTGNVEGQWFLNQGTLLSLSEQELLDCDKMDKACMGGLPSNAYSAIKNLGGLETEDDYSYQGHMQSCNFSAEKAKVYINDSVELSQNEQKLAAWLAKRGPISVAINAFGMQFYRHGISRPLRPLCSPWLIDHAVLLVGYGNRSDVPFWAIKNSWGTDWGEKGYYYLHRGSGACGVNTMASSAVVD
Put plainly: Cathepsin F assay (hCat F). Format: biochemical. The following applies: Z-Phe-Arg-AMC substrate, pH 5.5, 15 min preincubation; read-out: hCat F (IP (nM)). The method, boiled down:
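AMC release from Z-Phe-Arg-AMC, added at 8 μM, was monitored fluorometrically (360/460 nm) for 20 min after 10 nM enzyme and compound had been preincubated 15 min at room temperature. Buffer: MES 50 mM pH 5.5, EDTA and DTT 2.5 mM each, 10% DMSO. Compound DMSO dilutions spanned 500–0.025 μM (3-fold). Dose-response fitting gave % inhibition.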

Consider `Cc1ccc(-c2nc([C@@H]3CC[C@H](F)C[C@H]3C(=O)N[C@H](C#N)C(C)C)c(-c3ccc(N4CCS(=O)(=O)CC4)cc3)s2)nn1` [Example 217, (1R,2R,5S)-N-((S)-1-cyano-2-methylpropyl)-2-(5-(4-(1,1-dioxidothiomorpho-lino)phenyl)-2-(6-methylpyridazin-3-yl)thiazol-4-yl)-5-fluorocyclohexane-carboxamide], for which the IC50 on human cathepsin K is 1.5 nM; on human cathepsin F it was 2930 nM.
In the same order, the values of `C[C@@H](C#N)NC(=O)[C@@H]1C[C@@H](F)CC[C@H]1c1nc(C(F)F)sc1-c1ccc(N2CCS(=O)(=O)CC2)cc1` [Example 220, (1R,2R,5S)-N-((S)-1-cyanoethyl)-2-(2-(difluoromethyl)-5-(4-(1,1-dioxidothiomorpho-lino)phenyl)thiazol-4-yl)-5-fluorocyclohexane-carboxamide] are 1.6 nM and 2090 nM.
On the same counts, the results for `Cc1ccc(-c2nc([C@@H]3CC[C@H](F)C[C@H]3C(=O)NC3(C#N)CC3)c(-c3ccc(N4CCC(C)(O)CC4)cc3)s2)nn1` [Example 222, (1R,2R,5S)-N-(1-cyanocyclopropyl)-5-fluoro-2-(5-(4-(4-hydroxy-4-methylpiperidin-1-yl)phenyl)-2-(6-methylpyridazin-3-yl)thiazol-4-yl)cyclohexane-carboxamide] are 6.2 nM and 2050 nM.
Regarding `Cc1ccc(-c2nc([C@@H]3CC[C@H](F)C[C@H]3C(=O)NC3(C#N)CC3)c(-c3ccc(N4CCC(S(C)(=O)=O)CC4)cc3)s2)nn1` [Example 223, (1R,2R,5S)-N-(1-cyanocyclopropyl)-5-fluoro-2-(2-(6-methylpyridazin-3-yl)-5-(4-(4-(methylsulfonyl)piperidin-1-yl)phenyl)thiazol-4-yl)cyclohexane-carboxamide], the IC50 was 2.9 nM at human cathepsin K and 2230 nM at human cathepsin F.
On the same counts, the results for `CC(C)(CO)c1nc([C@@H]2CCCC[C@H]2C(=O)NC2(C#N)CC2)c(-c2ccc(N3CCS(=O)(=O)CC3)cc2)s1` [Example 224, (1R,2R)-N-(1-cyanocyclopropyl)-2-(5-(4-(1,1-dioxidothiomorpho-lino)phenyl)-2-(1-hydroxy-2-methylpropan-2-yl)thiazol-4-yl)cyclohexane-carboxamide] are 3.3 nM and not below 10000 nM.
Turning to `C[C@@H](C#N)NC(=O)[C@@H]1CCCC[C@H]1c1nc(C(C)(C)CO)sc1-c1ccc(N2CCS(=O)(=O)CC2)cc1` [Example 225, (1R,2R)-N-((S)-1-cyanoethyl)-2-(5-(4-(1,1-dioxidothiomorpho-lino)phenyl)-2-(1-hydroxy-2-methylpropan-2-yl)thiazol-4-yl)cyclohexane-carboxamide], the IC50 worked out at 1.6 nM at human cathepsin K and 1040 nM on human cathepsin F.
In the same order, the values of `Cc1nc([C@@H]2CC[C@H](F)C[C@H]2C(=O)N[C@@H](C)C#N)c(-c2ccc(N3CCOCC3)cc2)s1` [Example 230, (1R,2R,5S)-N-((S)-1-cyanoethyl)-5-fluoro-2-(2-methyl-5-(4-morpholinophenyl)thiazol-4-yl)cyclohexane-carboxamide] are 45.5 nM and 3330 nM.
As for `C[C@@H](C#N)NC(=O)[C@@H]1C[C@@H](F)CC[C@H]1c1nc(C2(C(F)(F)F)CC2)sc1-c1ccc(N2CCS(=O)(=O)CC2)cc1` [Example 231, (1R,2R,5S)-N-((S)-1-cyanoethyl)-2-(5-(4-(1,1-dioxidothiomorpho-lino)phenyl)-2-(1-(trifluoromethyl)cyclopropyl)thiazol-4-yl)-5-fluorocyclohexane-carboxamide], the IC50 on human cathepsin K worked out at 2.8 nM; at human cathepsin F it was 3140 nM.
On the same counts, the results for `N#CC1(NC(=O)[C@@H]2C[C@@H](F)CC[C@H]2c2nc(C3(C(F)(F)F)CC3)sc2-c2ccc(N3CCS(=O)(=O)CC3)cc2)CC1` [Example 232, (1R,2R,5S)-N-(1-cyanocyclopropyl)-2-(5-(4-(1,1-dioxidothiomorpho-lino)phenyl)-2-(1-(trifluoromethyl)cyclopropyl)thiazol-4-yl)-5-fluorocyclohexane-carboxamide] are 5 nM and not below 10000 nM.
`C[C@@H](C#N)NC(=O)[C@@H]1C[C@@H](F)CC[C@H]1c1nc(CF)sc1-c1ccc(N2CCS(=O)(=O)CC2)cc1` [Example 237, (1R,2R,5S)-N-((S)-1-cyanoethyl)-2-(5-(4-(1,1-dioxidothiomorpho-lino)phenyl)-2-(fluoromethyl)thia-zol-4-yl)-5-fluorocyclohexane-carboxamide]: the IC50 on human cathepsin K was 4.1 nM; on human cathepsin F it was 6830 nM.
In the same order, the values of `N#CC1(NC(=O)[C@@H]2C[C@@H](F)CC[C@H]2c2nc(CF)sc2-c2ccc(N3CCS(=O)(=O)CC3)cc2)CC1` [Example 238, (1R,2R,5S)-N-(1-cyanocyclopropyl)-2-(5-(4-(1,1-dioxidothiomorpho-lino)phenyl)-2-(fluoromethyl)thia-zol-4-yl)-5-fluorocyclohexane-carboxamide] are 3.5 nM and 3170 nM.
On the same counts, the results for `Cc1nc([C@@H]2CC[C@H](F)C[C@H]2C(=O)N[C@@H](C)C#N)c(-c2ccc(N3CCC(F)(F)CC3)cc2)s1` [Example 239, (1R,2R,5S)-N-((S)-1-cyanoethyl)-2-(5-(4-(4,4-difluoropiperidin-1-yl)phenyl)-2-methylthiazol-4-yl)-5-fluorocyclohexane-carboxamide] are 8.5 nM and 5340 nM.
For the molecule `Cc1nc([C@@H]2CC[C@H](F)C[C@H]2C(=O)NC2(C#N)CC2)c(-c2ccc(N3CCC(F)(F)CC3)cc2)s1` [Example 240, (1R,2R,5S)-N-(1-cyanocyclopropyl)-2-(5-(4-(4,4-difluoropiperidin-1-yl)phenyl)-2-methylthiazol-4-yl)-5-fluorocyclohexane-carboxamide], the IC50 at human cathepsin K was 8 nM; on human cathepsin F it was 7120 nM.
Turning to `Cc1nc([C@@H]2CC[C@H](F)C[C@H]2C(=O)N[C@@H](C)C#N)c(-c2ccc(N3CCC(C)(O)CC3)cc2)s1` [Example 241, (1R,2R,5S)-N-((S)-1-cyanoethyl)-5-fluoro-2-(5-(4-(4-hydroxy-4-methylpiperidin-1-yl)phenyl)-2-methylthiazol-4-yl)cyclohexane-carboxamide], the IC50 on human cathepsin K is 34.9 nM; on human cathepsin F it was not below 10000 nM.
In the case of `Cc1nc([C@@H]2CC[C@H](F)C[C@H]2C(=O)NC2(C#N)CC2)c(-c2ccc(N3CCC(C)(O)CC3)cc2)s1` [Example 242, (1R,2R,5S)-N-(1-cyanocyclopropyl)-5-fluoro-2-(5-(4-(4-hydroxy-4-methylpiperidin-1-yl)phenyl)-2-methylthiazol-4-yl)cyclohexane-carboxamide], the IC50 is 26.3 nM on human cathepsin K and not below 10000 nM at human cathepsin F.
In the same order, the values of `Cc1nc([C@@H]2CC[C@H](F)C[C@H]2C(=O)NC2(C#N)CC2)c(-c2ccc(N3CCC(S(C)(=O)=O)CC3)cc2)s1` [Example 243, (1R,2R,5S)-N-(1-cyanocyclopropyl)-5-fluoro-2-(2-methyl-5-(4-(4-(methylsulfonyl)piperidin-1-yl)phenyl)thiazol-4-yl)cyclohexane-carboxamide] are 5.3 nM and 8430 nM.
For `Cc1nc([C@@H]2CC[C@H](F)C[C@H]2C(=O)N[C@@H](C)C#N)c(-c2ccc(N3CCC(S(C)(=O)=O)CC3)cc2)s1` [Example 244, (1R,2R,5S)-N-((S)-1-cyanoethyl)-5-fluoro-2-(2-methyl-5-(4-(4-(methylsulfonyl)piperidin-1-yl)phenyl)thiazol-4-yl)cyclohexane-carboxamide], the IC50 at human cathepsin K was 4.7 nM; on human cathepsin F it was 7740 nM.
In the same order, the values of `Cc1nc([C@H]2CCCC[C@@H]2C(=O)NCC#N)c(-c2ccc(C(=O)N3CCOCC3)cc2)s1` [Example 248, (1S,2S)-N-(cyanomethyl)-2-(2-methyl-5-(4-(morpholine-4-carbonyl)phenyl)thiazol-4-yl)cyclohexanecarboxamide] are 6600 nM and not below 10000 nM.
As to `N#CC1(NC(=O)[C@@H]2C[C@@H](F)CC[C@H]2c2nc(C(F)F)sc2-c2ccc(N3CCS(=O)(=O)CC3)cc2)CC1` [Example 2219, (1R,2R,5S)-N-(1-cyanocyclopropyl)-2-(2-(difluoromethyl)-5-(4-(1,1-dioxidothiomorpho-lino)phenyl)thiazol-4-yl)-5-fluorocyclohexane-carboxamide], the values for the IC50 on human cathepsin K and at human cathepsin F were 1.8 nM and 4860 nM, respectively.
